Experimental data taken from patent US20090082341A1 (SYNOSIA THERAPEUTICS, priority 2007, published 2009).
Entries after “also recorded” stand apart in the source; their conditions may differ.

Legend:
[1] = test system: male Sprague Dawley rats; assay: Elevated plus-maze test; format: in vivo, rat
Method: Animals are placed in the center of an elevated maze containing two closed and two open arms. The time spent in the open arms of the maze, together with the number of times the animals enter the open arms of the maze, are taken as indices of the level of neophobic anxiety of these animals.
Levels of anxiety were determined by the time spent and the distance traveled in the open arms of the maze. Data are mean±SEM based on 12 animals per group. […] FIG. 5: SEM: standard error of the mean. Results are based on 11 animals. […] Data analyzed with a paired t-test.
Adult male Sprague Dawley rats weighing approximately 200 g at the start of the experiment were used. They were housed in groups of four in Macrolon Type 3 cages (810 cm^2) with sawdust bedding. The animals were maintained on a 12:12 h light-dark cycle with light onset at 6 am., with free access to tap water and food (Promikliba Kaiseraugst, Switzerland). Room temperature (21-23° C.) and humidity (55-65%) were kept constant.
The elevated plus-maze consisted of two open arms perpendicular to two closed arms (each arm was 10 cm wide×50 cm long) extending from a small open central area. The apparatus was constructed from grey polyvinylchloride plastic and placed 50 cm above the floor. […] The apparatus was situated in a sound-attenuated observation room with controlled illumination (200 lux on the central platform of the plus-maze). Rats were tested in a randomized order. The test started by placing the animal on the central platform facing a closed arm. The duration of the test was 5 minutes. 70% ethanol was used to clean the apparatus prior to the introduction of each animal.
The plus-maze was positioned in the middle of a closed black environment with the animal observed via a closed circuit video camera mounted above the maze. Behavioral analysis was conducted using a computerized system (Ethovision, Noldus Information Technology, The Netherlands).
Each treatment group consisted of 9 to 12 rats. Each animal was used only for a single experiment. […] After drug administration, rats were isolated in small cages without sawdust and water. After one hour, they were placed in the plus-maze.
The measures selected to represent anxiolytic-like behavior was the time spent (sec) within the open arms, the distance traveled (cm) within the open arms, and the number of transitions between the central platform and the open arms. The measure used to quantify motor activity was the distance traveled per second (speed) within the closed arms.
The compounds were administered p.o. (gavage) in a volume of 5 ml/kg body weight. Control animals received equal volume injections of vehicle.
A p-value lower than 0.05 was considered significant. The effects of chlordiazepoxide were analysed using a t-test.

[2] = test system: male Wistar rats; assay: Passive avoidance test, scopolamine-induced amnesia; format: in vivo, rat
Description: This test relies on training rodents to avoid an aversive event (electric shock) by curbing a normal behavior, and at specified intervals after training, testing the animals for retention of such learning.
Adult rats were trained in a step-down test to avoid foot shock by remaining on a plastic platform. […] Amnesia was induced by administering scopolamine subcutaneously (sc) given immediately post-training.
The protocol to generate FIG. 6 data are as follows: Adult rats (n=16/dose group) were trained to avoid foot shock by remaining on a plastic platform in a step-down test. […] Amnesia was induced by administration of scopolamine sc at 1 mg/kg immediately post-training. Retention, measured as the % of rats with correct responses, was assessed 2 h post-training.
Male adult Wistar rats (HanBrl: WIST (SPF); RCC Füllinsdorf) weighing approximately 94-113 g were used. The animals were housed in groups of four in Macrolon Type 3 cages (810 cm^2) with sawdust bedding. Tap water and standard laboratory chow (Ratte Alleinfutter, extrudat No 3436; Provimikliba Kaiseraugst, Switzerland) were continuously available except during testing. The animal quarters were maintained on a 12:12 hr light-dark cycle with light onset at 6 a.m. […]
Two hours after the training and the post-training treatment, each rat was evaluated for retention of the passive avoidance response in the retention test. […]

[3] = 3, 10 and 30 mg/kg po, vs vehicle

## COc1ccc(N2CCOCC2)c2sc(NC(=O)N3CCC(C)(O)CC3)nc12 [4-hydroxy-4-methyl-piperidine-1-carboxylic acid (4-methoxy-7-morpholin-4-yl-benzothiazol-2-yl)-amide]
[1]; [3]
  distance traveled in open arms: dose-dependent increase; also recorded: significantly and dose-dependently increased
  entries into the open arms: dose-dependent increase; also recorded: significantly and dose-dependently increased
  speed in the closed arms: increased speed in the closed arms reaching statistical significance at 10 and 30 mg/kg
  time spent in the open arms: significant dose-dependent increase; also recorded: significantly and dose-dependently increased
[1]; po
  dose of maximal effect, all parameters measured: 30 mg/kg
  lowest dose that reached statistical significance, distance traveled in the open arms: 30 mg/kg
  lowest dose that reached statistical significance, open arm entries: 10 mg/kg
  lowest dose that reached statistical significance, time spent in the open arms: 30 mg/kg
[2]; 100 mg/kg po + scopolamine 1 mg/kg sc, 2 h post-training, scopolamine + vehicle 12.5%
  proportion of scopolamine-treated animals exhibiting passive avoidance retention (correct responses): 43.75%
[2]; 3, 10, 30 and 100 mg/kg po immediately post-training
  reversal of the scopolamine-induced retention deficit: dose-dependent and statistically significant at the highest dose tested (100 mg/kg po); also recorded: dose-dependent reversal
